# Measured values: patent US9120770B2, “Substituted pyridine and pyrazine compounds as PDE4 inhibitors” (DART NEUROSCIENCE (CAYMAN) LTD., priority 2013, dated 2015)
# Target: PDE4D3 (Homo sapiens, UniProt Q08499)
# Sequence (Q08499 1-673 isoform Q08499-2): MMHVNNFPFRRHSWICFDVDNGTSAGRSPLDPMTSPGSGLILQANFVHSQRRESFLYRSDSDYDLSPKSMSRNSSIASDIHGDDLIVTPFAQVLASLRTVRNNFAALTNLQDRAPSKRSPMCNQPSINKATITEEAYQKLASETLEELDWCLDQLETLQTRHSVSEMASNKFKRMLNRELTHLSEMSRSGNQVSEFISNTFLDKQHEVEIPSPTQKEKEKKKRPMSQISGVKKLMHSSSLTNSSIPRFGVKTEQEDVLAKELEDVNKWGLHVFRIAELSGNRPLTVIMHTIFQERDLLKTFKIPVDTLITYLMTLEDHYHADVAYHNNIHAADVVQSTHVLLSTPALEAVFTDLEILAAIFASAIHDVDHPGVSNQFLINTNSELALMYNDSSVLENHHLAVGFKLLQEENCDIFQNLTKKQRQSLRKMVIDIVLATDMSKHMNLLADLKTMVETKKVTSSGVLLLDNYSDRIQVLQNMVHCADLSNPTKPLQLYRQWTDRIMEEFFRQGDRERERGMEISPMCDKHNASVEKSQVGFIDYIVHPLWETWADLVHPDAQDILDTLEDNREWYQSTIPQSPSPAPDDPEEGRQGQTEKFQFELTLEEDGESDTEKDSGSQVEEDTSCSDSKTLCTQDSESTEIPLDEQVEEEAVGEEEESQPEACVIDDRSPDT
row,SMILES,EC50
1,"CCOc1ncc(Cn2cc(CO)nn2)nc1-c1cccc(OC(F)F)c1 [Example 265, [1-({6-[3-(Difluoromethoxy)phenyl]-5-ethoxypyrazin-2-yl}methyl)-1H-1,2,3-triazol-4-yl]methanol]",100 to 1000 nM
2,"COc1ncc(Cn2cc(CO)nn2)nc1-c1cccc(Cl)c1 [Example 266, (1-{[6-(3-Chlorophenyl)-5-methoxypyrazin-2-yl]methyl}-1H-1,2,3-triazol-4-yl)methanol]",100 to 1000 nM
3,"COc1ncc(Cn2cc(CO)nn2)nc1-c1cccc(OC(F)F)c1 [Example 267, [1-({6-[3-(Difluoromethoxy)phenyl]-5-methoxypyrazin-2-yl}methyl)-1H-1,2,3-triazol-4-yl]methanol]",100 to 1000 nM
4,"CCOc1ncc(Cn2cc(CO)nn2)nc1-c1cccc(Cl)c1 [Example 268, (1-{[6-(3-Chlorophenyl)-5-ethoxypyrazin-2-yl]methyl}-1H-1,2,3-triazol-4-yl)methanol]",100 to 1000 nM
5,"CCOc1ncc(Cn2cc(C(F)F)nn2)cc1-c1cccc(OC(F)F)c1 [Example 269, 3-[3-(Difluoromethoxy)phenyl]-5-{[4-(difluoromethyl)-1H-1,2,3-triazol-1-yl]methyl}-2-ethoxypyridine]",100 to 1000 nM
6,"COc1ncc(Cn2cc(C(=O)O)cn2)cc1-c1cccc(Cl)c1 [Example 270, 1-{[5-(3-Chlorophenyl)-6-methoxypyridin-3-yl]methyl}-1H-pyrazole-4-carboxylic acid]",> 10000 nM
7,"COc1ncc(Cn2cc(C(N)=O)cn2)cc1-c1cccc(Cl)c1 [Example 271, 1-{[5-(3-Chlorophenyl)-6-methoxypyridin-3-yl]methyl}-1H-pyrazole-4-carboxamide]",100 to 1000 nM
8,"OCc1cncn1Cc1cnc(OC(F)F)c(-c2cccc(Cl)c2)c1 [Example 273, (1-{[5-(3-Chlorophenyl)-6-(difluoromethoxy)pyridin-3-yl]methyl}-1H-imidazol-5-yl)methanol]",1000 to 10000 nM
9,"CCOc1ncc(Cn2cc(Cl)c(CO)n2)cc1-c1cccc(Cl)c1 [Example 277, (4-Chloro-1-{[5-(3-chlorophenyl)-6-ethoxypyridin-3-yl]methyl}-1H-pyrazol-3-yl)methanol]",100 to 1000 nM
10,"CCOc1ncc(Cn2ncc(Cl)c2CO)cc1-c1cccc(Cl)c1 [Example 278, (4-Chloro-1-{[5-(3-chlorophenyl)-6-ethoxypyridin-3-yl]methyl}-1H-pyrazol-5-yl)methanol]",100 to 1000 nM
11,"O=C(O)c1ccc(Cc2cnc(OC(F)F)c(-c3cccc(Cl)c3)c2)cc1 [Example 280, 4-{[5-(3-Chlorophenyl)-6-(difluoromethoxy)pyridin-3-yl]methyl}benzoic acid]",1000 to 10000 nM

# Continued, values first:
row,EC50,SMILES
1,< 100 nM,"COc1ncc(Cn2cnc(C(F)F)n2)cc1-c1ccnc(OC(F)F)c1 [Example 261, 3-[2-(Difluoromethoxy)pyridin-4-yl]-5-{[3-(difluoromethyl)-1H-1,2,4-triazol-1-yl]methyl}-2-methoxypyridine]"
2,< 100 nM,"COc1ncc(Cn2ccnn2)cc1-c1cccc(Cl)c1 [Example 262, 3-(3-Chlorophenyl)-2-methoxy-5-(1H-1,2,3-triazol-1-ylmethyl)pyridine]"
3,< 100 nM,"CCOc1ncc(Cn2cc(CO)nn2)cc1-c1cccc(OC(F)F)c1 [Example 263, [1-({5-[3-(Difluoromethoxy)phenyl]-6-ethoxypyridin-3-yl}methyl)-1H-1,2,3-triazol-4-yl]methanol]"
4,< 100 nM,"CCOc1cccc(-c2cc(Cn3cc(CO)nn3)cnc2OC(F)F)c1 [Example 264, (1-((6-(Difluoromethoxy)-5-(3-ethoxyphenyl)pyridin-3-yl)methyl)-1H-1,2,3-triazol-4-yl)methanol]"
5,< 100 nM,"COc1ncc(Cn2cc(CO)cn2)cc1-c1cccc(OC(F)F)c1 [Example 272, [1-({5-[3-(Difluoromethoxy)phenyl]-6-methoxypyridin-3-yl}methyl)-1H-pyrazol-4-yl]methanol]"
6,< 100 nM,"OCc1cn(Cc2cnc(OC(F)F)c(-c3cccc(Cl)c3)c2)cn1 [Example 274, (1-{[5-(3-Chlorophenyl)-6-(difluoromethoxy)pyridin-3-yl]methyl}-1H-imidazol-4-yl)methanol]"
7,< 100 nM,"COc1ncc(Cn2ccc(CO)n2)cc1-c1cccc(OC(F)F)c1 [Example 275, [1-({5-[3-(Difluoromethoxy)phenyl]-6-methoxypyridin-3-yl}methyl)-1H-pyrazol-3-yl]methanol]"
8,< 100 nM,"CCOc1ncc(Cn2cc(CO)cn2)cc1-c1cccc(Cl)c1 [Example 276, (1-{[5-(3-Chlorophenyl)-6-ethoxypyridin-3-yl]methyl}-1H-pyrazol-4-yl)methanol]"
